GI50 data for 20 molecules are collected here from patent publication US10442796B2, “2,3,5-substituted thiophene compound as protein kinase inhibitor” (KOREA INSTITUTE OF SCIENCE AND TECHNOLOGY, priority 2016, dated 2019).

Changes are numbered by the printed parent chain. Structures can show the parent of a compound that is named as a salt.

Experiment [1] addresses T1, FLT3-ITD-F691L Ba/F3 cells (Homo sapiens, UniProt P36888, F691L, cells depend on it, form not given).
T1 sequence (P36888 1-993 F691L): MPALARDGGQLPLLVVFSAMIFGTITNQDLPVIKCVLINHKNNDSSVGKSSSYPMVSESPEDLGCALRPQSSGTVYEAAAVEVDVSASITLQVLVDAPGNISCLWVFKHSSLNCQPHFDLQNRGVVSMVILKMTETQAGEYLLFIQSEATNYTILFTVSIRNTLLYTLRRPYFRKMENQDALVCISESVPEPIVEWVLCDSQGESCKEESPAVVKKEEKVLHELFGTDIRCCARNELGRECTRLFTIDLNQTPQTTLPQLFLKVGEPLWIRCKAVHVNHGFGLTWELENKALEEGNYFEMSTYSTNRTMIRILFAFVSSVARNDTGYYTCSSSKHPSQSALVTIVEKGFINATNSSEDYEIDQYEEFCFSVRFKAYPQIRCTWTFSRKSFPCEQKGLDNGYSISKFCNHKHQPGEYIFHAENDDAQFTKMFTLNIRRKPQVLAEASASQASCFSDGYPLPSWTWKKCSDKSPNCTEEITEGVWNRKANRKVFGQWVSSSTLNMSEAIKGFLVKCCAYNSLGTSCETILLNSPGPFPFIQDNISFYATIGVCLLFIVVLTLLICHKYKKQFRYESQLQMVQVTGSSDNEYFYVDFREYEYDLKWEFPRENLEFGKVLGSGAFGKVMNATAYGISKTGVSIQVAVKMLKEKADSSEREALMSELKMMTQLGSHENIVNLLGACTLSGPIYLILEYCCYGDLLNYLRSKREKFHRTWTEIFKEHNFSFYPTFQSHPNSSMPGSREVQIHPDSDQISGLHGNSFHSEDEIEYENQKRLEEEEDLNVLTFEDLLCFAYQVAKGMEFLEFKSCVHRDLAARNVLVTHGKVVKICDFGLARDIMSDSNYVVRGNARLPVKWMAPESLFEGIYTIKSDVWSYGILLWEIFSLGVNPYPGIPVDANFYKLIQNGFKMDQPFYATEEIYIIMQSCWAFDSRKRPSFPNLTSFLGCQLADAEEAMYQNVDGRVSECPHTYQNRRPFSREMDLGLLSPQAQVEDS
The experiment in a line: Growth inhibitory activity against Ba/F3 cell line. Format: cell-based. The note with it: Ba/F3 expressing FLT3-ITD-F691L; 72 hours; cell titer glo; read-out: IC50 (uM) FLT3-ITD-F691L. How it is done:
(§1) A Ba/F3 cell line expressing an FLT3 mutation gene was cultured in a culture solution including 90% RPMI, 10% FBS, and an antibiotic (Welgene). 100 uL of the Ba/F3 cell line was put into each of 5,000 wells of a TC-treated 96 well plate (SPL), and then 1 uL of a test compound diluted in dimethylsulfoxide (diluted for each 3 paint from a concentration of 1 mM, total 10 concentrations) was each injected thereinto. Thereafter, the resulting cell lines were incubated in a cell culture incubator for 72 hours. 50 uL of a cell titer glo (Promega) solution was added thereto, the resulting mixture was stored at room temperature for 10 minutes, and then the light emission intensity was measured by using a reader (Envision, PerkinElmer). The light emission intensity was shown as a graph for each final concentration of the test compound, and the GI50 value was obtained by using a Prism 5.0 (GraphPad) software.

The target in experiment [2] is T2, FLT3-ITD-F691L-D835Y Ba/F3 cells (Homo sapiens, UniProt P36888, F691L/D835Y, cells depend on it, form not given).
T2 sequence (P36888 1-993 F691L/D835Y): T1 sequence (P36888 1-993 F691L) with D835Y
The experiment in a line: Growth inhibitory activity against Ba/F3 cell line. As to conditions: Ba/F3 expressing FLT3-ITD-F691L-D835Y; 72 hours; cell titer glo; read-out: IC50 (uM) FLT3-ITD-F691L-D835Y. It counts as cell-based. How it is done: as §1
For orientation: In ATP-based viability assays light output follows the ATP content of the culture.

Turning to `NC(=O)Nc1cc(C#Cc2ccccc2)sc1C(=O)N[C@H]1CCCNC1` [Example 2, (S)-5-(phenylethynyl)-N-(piperidin-3-yl)-3-ureidothiophene-2-carboxamide], the GI50 in experiment [1] is 0.004 µM; in experiment [2] it was less than 0.001 µM.
With `NC(=O)Nc1cc(C#Cc2cccnc2)sc1C(=O)N[C@H]1CCCNC1` [Example 3, (S)—N-(piperidin-3-yl)-5-(pyridin-3-ylethynyl)-3-ureidothiophene-2-carboxamide], the GI50 in experiment [1] was 0.099 µM; in experiment [2] it was less than 0.004 µM.
With `NC(=O)Nc1cc(C#Cc2ccncc2)sc1C(=O)N[C@H]1CCCNC1` [Example 4, (S)—N-(piperidin-3-yl)-5-(pyridin-4-ylethynyl)-3-ureidothiophene-2-carboxamide], the GI50 in experiment [1] is 1.1 µM; in experiment [2], 0.01 µM.
With `NC(=O)Nc1cc(C#Cc2cccc([N+](=O)[O-])c2)sc1C(=O)N[C@H]1CCCNC1` [Example 5, (S)-5-((3-nitrophenyl)ethynyl)-N-(piperidin-3-yl)-3-ureidothiophene-2-carboxamide], the figures for the GI50 in experiment [1] and in experiment [2] were 0.062 µM and less than 0.004 µM, respectively.
The matching figures for `N#Cc1cccc(C#Cc2cc(NC(N)=O)c(C(=O)N[C@H]3CCCNC3)s2)c1` [Example 6, (S)-5-((3-cyanophenyl)ethynyl)-N-(piperidin-3-yl)-3-ureidothiophene-2-carboxamide]: 0.055 µM and less than 0.004 µM.
Regarding `NC(=O)Nc1cc(C#Cc2ccc([N+](=O)[O-])cc2)sc1C(=O)N[C@H]1CCCNC1` [Example 7, (S)-5-((4-nitrophenyl)ethynyl)-N-(piperidin-3-yl)-3-ureidothiophene-2-carboxamide], the GI50 is 0.089 µM in experiment [1] and less than 0.004 µM in experiment [2].
On to `NC(=O)Nc1cc(C#Cc2ccc(Cl)cc2)sc1C(=O)N[C@H]1CCCNC1` [Example 8, (S)-5-((4-chlorophenyl)ethynyl)-N-(piperidin-3-yl)-3-ureidothiophene-2-carboxamide], for which the GI50 in experiment [1] was 0.013 µM; in experiment [2] it was less than 0.001 µM.
As to `NC(=O)Nc1cc(C#Cc2ccc(F)cc2)sc1C(=O)N[C@H]1CCCNC1` [Example 9, (S)-5-((4-fluorophenyl)ethynyl)-N-(piperidin-3-yl)-3-ureidothiophene-2-carboxamide], the GI50 was 0.005 µM in experiment [1] and less than 0.001 µM in experiment [2].
Turning to `NC(=O)Nc1cc(C#Cc2ccccn2)sc1C(=O)N[C@H]1CCCNC1` [Example 10, (S)—N-(piperidin-3-yl)-5-(pyridin-2-ylethynyl)-3-ureidothiophene-2-carboxamide], the GI50 was found to be 0.066 µM in experiment [1] and 0.004 µM in experiment [2].
For the molecule `N#Cc1ccc(C#Cc2cc(NC(N)=O)c(C(=O)N[C@H]3CCCNC3)s2)cc1` [Example 11, (S)-5-((4-cyanophenyl)ethynyl)-N-(piperidin-3-yl)-3-ureidothiophene-2-carboxamide], the values for the GI50 in experiment [1] and in experiment [2] were 0.004 µM and less than 0.001 µM, respectively.
For `NC(=O)Nc1cc(C#Cc2n[nH]c3ccccc23)sc1C(=O)N[C@H]1CCCNC1` [Example 12, (S)-5-((1H-indazol-3-yl)ethynyl)-N-(piperidin-3-yl)-3-ureidothiophene-2-carboxamide], the GI50 in experiment [1] was determined as 0.487 µM; in experiment [2], 0.027 µM.
Consider `NC(=O)Nc1cc(C#Cc2ccc(F)nc2)sc1C(=O)N[C@H]1CCCNC1` [Example 13, (S)-5-((6-fluoropyridin-3-yl)ethynyl)-N-(piperidin-3-yl)-3-ureidothiophene-2-carboxamide], for which the GI50 in experiment [1] amounted to 0.022 µM; in experiment [2], 0.004 µM.
Regarding `NC(=O)Nc1cc(C#Cc2ccc(F)c(F)c2)sc1C(=O)N[C@H]1CCCNC1` [Example 14, (S)-5-((3,4-difluorophenyl)ethynyl)-N-(piperidin-3-yl)-3-ureidothiophene-2-carboxamide], the values for the GI50 in experiment [1] and in experiment [2] were 0.009 µM and less than 0.001 µM, respectively.
The matching figures for `Cn1cc(C#Cc2cc(NC(N)=O)c(C(=O)N[C@H]3CCCNC3)s2)cn1` [Example 15, (S)-5-((l-methyl-1H-pyrazol-4-yl)ethynyl)-N-(piperidin-3-yl)-3-ureidothiophene-2-carboxamide trifluoroacetate]: 0.216 µM and 0.009 µM.
Consider `NC(=O)Nc1cc(C#Cc2ccc(C(F)(F)F)cc2)sc1C(=O)N[C@H]1CCCNC1` [Example 16, ((S)—N-(piperidin-3-yl)-5-((4-(trifluoromethyl)phenyl)ethynyl)-3-ureidothiophene-2-carboxamide trifluoroacetate], for which the results for the GI50 in experiment [1] and in experiment [2] were 0.335 µM and 0.004 µM, respectively.
With `NC(=O)Nc1cc(C#Cc2ccc(C(F)(F)F)nc2)sc1C(=O)N[C@H]1CCCNC1` [Example 17, (S)—N-(piperidin-3-yl)-5-((6-(trifluoromethyl)pyridin-3-yl)ethynyl)-3-ureidothiophene-2-carboxamide], the results for the GI50 in experiment [1] and in experiment [2] were 0.069 µM and less than 0.004 µM, respectively.
As for `COC(=O)c1ccc(C#Cc2cc(NC(N)=O)c(C(=O)N[C@H]3CCCNC3)s2)cc1` [Example 18, methyl (S)-4-((5-(piperidin-3-ylcarbamoyl)-4-ureidothiophen-2-yl)ethynyl)benzoate trifluoroacetate], the GI50 in experiment [1] was 0.023 µM; in experiment [2], less than 0.001 µM.
As to `NC(=O)Nc1cc(C#Cc2ccnc(F)c2)sc1C(=O)N[C@H]1CCCNC1` [Example 21, (S)-5-((2-fluoropyridin-4-yl)ethynyl)-N-(piperidin-3-yl)-3-ureidothiophene-2-carboxamide], the GI50 in experiment [1] was 0.087 µM; in experiment [2], less than 0.004 µM.
`NC(=O)Nc1cc(C#Cc2cccc(F)c2)sc1C(=O)N[C@H]1CCCNC1` [Example 22, (S)-5-((3-fluorophenyl)ethynyl)-N-(piperidin-3-yl)-3-ureidothiophene-2-carboxamide]: the GI50 in experiment [1] is 0.032 µM; in experiment [2], less than 0.001 µM.
Take `CS(=O)(=O)N1CCC(n2cc(C#Cc3cc(NC(N)=O)c(C(=O)N[C@H]4CCCNC4)s3)cn2)CC1` [Example 23, (S)-5-((1-(1-(methylsulfonyl)piperidin-4-yl)-1H-pyrazol-4-yl)ethynyl)-N-(piperidin-3-yl)-3-ureidothiophene-2-carboxamide]: the GI50 in experiment [1] turned out to be 0.267 µM; in experiment [2] it was 0.02 µM.
